In US7544814B2, “[3.2.0] Heterocyclic compounds and methods of using the same” (Nereus Pharmaceuticals, Inc., priority 2004, dated 2009):
“And” between values parts separate entries of the source, which are not always exact repeats. Identical values can stand only once. Like-named read-outs stand apart in the source and are kept apart here.

Assays:
[1] = tested on: NF-κB; experiment: NF-κB-mediated luciferase reporter gene assay, HEK293 NF-κB/Luc cells, TNF-α stimulation; type: cell-based, human; settings: for effect on luciferase activity upon TNF-α stimulation, in words: pretreatment of NF-κB/Luc 293 cells
Description: The HEK293 NF-κB/luciferase reporter cell line is a derivative of the human embryonic kidney cell line (ATCC; CRL-1573) and carries a luciferase reporter gene under the regulation of 5× NF-κB binding sites. […] When performing the luciferase assay, the DMEM basal medium was replaced with phenol-red free DMEM basal medium and the G418 was omitted.
For NF-κB-mediated luciferase assays, HEK293 NF-κB/luciferase cells were seeded at 1.5×10^4 cells/well in 90 μl phenol-red free DMEM complete medium into Corning 3917 white opaque-bottom tissue culture plates. For Formula II-2, Formula II-4, Formula II-5A, and Formula II-18, a 400 μM starting dilution was made in 100% DMSO and this dilution was used to generate a 8-point half log dilution series. […] For Formula II-20, a 2.5 mM or 8 mM starting solution was made in 100% DMSO and the final test concentrations ranged from 6.3 μM to 2.0 nM or 20 μM to 6.3 nM, respectively. The plates were returned to the incubator for 1 hour. After 1 hr pretreatment, 10 μl of a 50 ng/ml TNF-α solution, prepared in the phenol-red free DMEM medium was added, and the plates were incubated for an additional 6 hr.
At the end of the TNF-α stimulation, 100 μl of Steady Lite HTS luciferase reagent (Packard Bioscience) was added to each well and the plates were left undisturbed for 10 min at room temperature before measuring the luciferase activity. The relative luciferase units (RLU) were measured by using a Fusion microplate fluorometer (Packard Bioscience).

[2] = biological target: T1, trypsin-like activity of purified rabbit muscle 20S proteasome (Oryctolagus cuniculus, UniProt G1SWK8); experiment: biochemical
T1 sequence (G1SWK8 1-271): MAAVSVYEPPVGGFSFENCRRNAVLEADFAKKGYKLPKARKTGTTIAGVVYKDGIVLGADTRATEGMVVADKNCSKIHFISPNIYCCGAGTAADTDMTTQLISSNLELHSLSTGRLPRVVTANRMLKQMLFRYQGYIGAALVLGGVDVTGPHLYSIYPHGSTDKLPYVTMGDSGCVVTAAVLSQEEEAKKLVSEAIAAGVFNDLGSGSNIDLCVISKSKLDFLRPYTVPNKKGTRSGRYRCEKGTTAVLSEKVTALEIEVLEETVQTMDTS

[3] = tested on: U266; experiment: Cell growth inhibition (resazurin), U266; settings: for cytotoxicity against U266, in words: from EC50 values; for EC50: 48 hours drug exposure
[4] = tested on: RPMI 8226; experiment: Cell growth inhibition (resazurin), RPMI 8226; settings: for cytotoxicity against RPMI 8226, in words: from EC50 values
[5] = biological target: T2, caspase-like activity of purified rabbit muscle 20S proteasome (Oryctolagus cuniculus, UniProt A0A5F9DQW2); experiment: In vitro inhibition of 20S proteasome caspase-like activity (Z-LLE-AMC)
T2 sequence (A0A5F9DQW2 1-212): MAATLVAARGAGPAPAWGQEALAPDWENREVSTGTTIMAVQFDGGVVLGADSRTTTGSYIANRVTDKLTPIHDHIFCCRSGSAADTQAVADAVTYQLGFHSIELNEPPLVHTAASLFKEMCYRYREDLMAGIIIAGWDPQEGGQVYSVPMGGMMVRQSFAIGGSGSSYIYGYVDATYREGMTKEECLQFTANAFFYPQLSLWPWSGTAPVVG

[6] = biological target: T1, trypsin-like activity of purified rabbit muscle 20S proteasome; experiment: In vitro inhibition of 20S proteasome trypsin-like activity (Boc-LRR-AMC)
[7] = biological target: T3, chymotrypsin-like activity of purified rabbit muscle 20S proteasome (Oryctolagus cuniculus, UniProt G1T4Q9); experiment: In vitro inhibition of 20S proteasome chymotrypsin-like activity (suc-LLVY-AMC)
T3 sequence (G1T4Q9 1-263): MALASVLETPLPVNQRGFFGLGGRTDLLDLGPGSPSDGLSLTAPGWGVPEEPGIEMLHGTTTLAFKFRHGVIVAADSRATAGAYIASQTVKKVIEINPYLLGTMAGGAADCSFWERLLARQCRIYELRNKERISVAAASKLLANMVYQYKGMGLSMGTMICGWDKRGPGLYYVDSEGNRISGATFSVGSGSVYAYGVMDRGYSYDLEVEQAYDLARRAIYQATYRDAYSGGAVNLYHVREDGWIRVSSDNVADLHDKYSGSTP

[8] = tested on: PC-3; experiment: Cell growth inhibition (resazurin), PC-3; type: cell-based, human
[9] = tested on: HT-29; experiment: Cell growth inhibition (resazurin), HT-29
[10] = tested on: OVCAR-3; experiment: Cell growth inhibition (resazurin), OVCAR-3; settings: for EC50: 48 hours drug exposure
[11] = tested on: B16-F10; experiment: Cell growth inhibition (resazurin), B16-F10
[12] = tested on: NCI-H292; experiment: Cell growth inhibition (resazurin), NCI-H292; settings: for EC50: Homo sapiens, NCI-H292, 48 h
[13] = tested on: MDA-MB-231; experiment: Cell growth inhibition (resazurin), MDA-MB-231
[14] = Homo sapiens, HEK293, read-out: EC50, NF-κB-mediated luciferase reporter gene assay, Table 5, values in nM, 1 hr pretreatment, TNF-α 6 hr
[15] = Homo sapiens, HEK293, read-out: EC50, NF-κB-mediated luciferase reporter gene assay, Table 5, values in μM, 1 hr pretreatment, TNF-α 6 hr
[16] = Homo sapiens, RPMI-8226, 48 h, read-out: RPMI 8226 EC50, Table 2, 48 hours drug exposure, mean ± SD where n≥3
[17] = read-out: RPMI 8226 EC50, Table 2, 48 hours drug exposure, mean ± SD where n≥3
[18] = EC50 Caspase-like, Table 6, values in μM
[19] = EC50 values, caspase-like activity, range in mixed units, summary of Table 6, range from nM to μM
[20] = EC50 Chymotrypsin-like, Table 6, values in nM
[21] = EC50 values, chymotrypsin-like activity, summary of Table 6
[22] = Homo sapiens, U-266, 48 h, read-out: U266 EC50, Table 2
[23] = Homo sapiens, RPMI-8226, read-out: Cytotoxicity RPMI EC50, Table 12
[24] = EC50 Caspase-like, Table 6, values in nM
[25] = Proteasome Caspase-like EC50, Table 12
[26] = Proteasome Chymotrypsin-like EC50, Table 12

Compound | EC50 [1, 14] [nM] | EC50 [1, 15] [nM] | effect on luciferase activity upon TNF-α stimulation, in words [1] | EC50 [2] | cytotoxicity against U266, in words [3] | EC50 [4, 16] [nM] | cytotoxicity against RPMI 8226, in words [4] | EC50 [4, 17] [nM] | EC50 [5, 18] | EC50 [5, 19] [µM] | inhibition of the trypsin-like activity of the 20S proteasome, in words ([6]; under the conditions tested) | EC50 [7, 20] | EC50 [7, 21] [nM] | EC50 [3, 22] [nM] | EC50 ([3]; read-out: U266 EC50, Table 2) [nM] | EC50 [4, 23] [nM] | EC50 [5, 24] | EC50 [5, 25] | EC50 [7, 26] [nM] | other results
CCC(=O)OCC[C@H]1C(=O)N[C@@]2([C@@H](O)[C@@H]3C=CCCC3)C(=O)O[C@@]12C [Formula II-22] | 728 | 1000 | dose-dependent decrease | 289 nM | cytotoxic | 9720 | cytotoxic | 11200 | 1.3 µM and 1.4 µM | 0.956 to 8.7 | able to inhibit | 7 nM and 3 nM | 2 to 11 | – | – | – | – | – | – | –
C[C@@]12OC(=O)[C@]1(C(O)[C@@H]1C=CCCC1)NC(=O)[C@@H]2CCI (single isomer, unassigned) [Formula II-19] | 7 | – | dose-dependent decrease | 13 nM and 15 nM | cytotoxic | 5.9 | cytotoxic | 7.1 | – | – | able to inhibit | 3 nM | – | 3.2 | 3.4 | 6 | 0.573 µM and 0.739 µM | 0.573 µM and 0.739 µM | 3 | EC50 ([8]; Homo sapiens, PC-3, 48 h, Table 1, 48 hours drug exposure, mean ± SD where n≥3, read-out: EC50 against PC-3): 29 ± 4 nM; cytotoxicity against PC-3, in words ([8]; from EC50 values): cytotoxic; EC50 ([1]; Homo sapiens, HEK293, read-out: NF-κB EC50, Table 12): 10 nM; EC50 ([3]; Homo sapiens, U-266, 48 h, read-out: EC50 against U266, Table 1): 3.2 nM; EC50 ([3]; read-out: EC50 against U266, Table 1): 3.4 nM; EC50 ([9]; Homo sapiens, HT-29, 48 h, read-out: EC50 against HT-29, Table 1, 48 hours drug exposure, mean ± SD where n≥3): 11 ± 1.6 nM; cytotoxicity against HT-29, in words ([9]; from EC50 values): cytotoxic; EC50 ([10]; Homo sapiens, OVCAR-3, 48 h, read-out: EC50 against OVCAR-3, Table 1): 24 nM; cytotoxicity against OVCAR-3, in words ([10]; from EC50 values): cytotoxic; EC50 ([10]; read-out: EC50 against OVCAR-3, Table 1): 20 nM; EC50 ([11]; Mus musculus, B16-F10, 48 h, read-out: EC50 against B16-F10, Table 1, 48 hours drug exposure, mean ± SD where n≥3): 13 ± 1.9 nM; cytotoxicity against B16-F10, in words ([11]; from EC50 values): cytotoxic; EC50 ([12]; read-out: EC50 against NCI-H292, Table 1, 48 hours drug exposure, mean ± SD where n≥3): 27 ± 3.8 nM; cytotoxicity against NCI-H292, in words ([12]; from EC50 values): cytotoxic; EC50 ([4]; Homo sapiens, RPMI-8226, 48 h, read-out: EC50 against RPMI 8226, Table 1, 48 hours drug exposure): 5.9 nM; EC50 ([4]; read-out: Cytotoxicity RPMI EC50, Table 12): 7 nM; EC50 ([4]; read-out: EC50 against RPMI 8226, Table 1, 48 hours drug exposure): 7.1 nM; EC50 ([13]; Homo sapiens, MDA-MB-231, 48 h, read-out: EC50 against MDA-MB-231, Table 1, 48 hours drug exposure, mean ± SD where n≥3): 14 ± 3.2 nM; cytotoxicity against MDA-MB-231, in words ([13]; from EC50 values): cytotoxic; EC50 ([5]; EC50 values, caspase-like activity, summary of Table 6): 0.213 to 0.85 µM
CC[C@H]1C(=O)N[C@@]2([C@@H](O)C3CCCCC3)C(=O)O[C@@]12C [Formula II-3] | – | – | – | 5500 nM and 7700 nM | – | > 20000 | – | – | > 20 µM | – | – | 964 nM | 207 to 964 | – | – | – | – | – | – | EC50 ([12]; read-out: EC50 against NCI-H292): > 20000 nM; inhibition of the trypsin-like activity of the 20S proteasome, in words [6]: able to inhibit
CCC[C@H]1C(=O)N[C@@]2([C@@H](O)[C@@H]3C=CCCC3)C(=O)O[C@@]12C [Formula II-30] | – | 2200 | dose-dependent decrease | 905 nM and 1200 nM | cytotoxic | 4900 | cytotoxic | 4160 | 1.3 µM | 0.956 to 8.7 | able to inhibit | 21 nM | 13 to 88 | 889 | 1240 | – | 0.956 µM | – | – | –
C[C@@]12OC(=O)[C@]1([C@@H](O)[C@@H]1C=CCCC1)NC(=O)[C@@H]2CCO [Formula II-21] | – | – | dose-dependent decrease | 879 nM | cytotoxic | > 20000 | – | – | 2.6 µM and 2.3 µM | 0.956 to 8.7 | able to inhibit | 8 nM | 2 to 11 | 6090 | 9670 | > 20000 | – | 2.58 µM and 2.33 µM | 8 | EC50 ([1]; Homo sapiens, HEK293, Table 5, values printed in μM, 1 hr pretreatment, TNF-α 6 hr, read-out: EC50, NF-κB-mediated luciferase reporter gene assay): 3200 nM; EC50 ([1]; Table 5, values in μM, 1 hr pretreatment, TNF-α 6 hr, read-out: EC50, NF-κB-mediated luciferase reporter gene assay): 2700 nM; EC50 ([1]; Table 12, read-out: NF-κB EC50): 2710 nM; EC50 ([6]; read-out: Proteasome Trypsin-like EC50, Table 12): 879 nM
